Type in all cases: cell-based
The subject of test [1] is PI3Kα H1047R mutation cell line MDA-MB-453. Description: Cell Proliferation IC50 Assay (CellTiter-Glo), MDA-MB-453. The note with it: Homo sapiens, read-out: IC50 (μM) MDA-MB-453. An excerpt: PI3Kα H1047R mutation cell line T-47D and MDA-MB-453, E545K mutation cell line MDA-MB-361 and PI3Kα wide type cell line SK-BR-3 were purchased from Cobioer Biotech (cat. no CBP60397, CBP60386, CBP60383 and CBP60413 respectively). The CellTiter-Glo Direct Cell Proliferation Assay Kit was purchased from Prornega (cat. No. G7573)
For cell proliferation assay in each cell line: • a. Prepare complete medium (R PMI 1640, DMEM or McCoys): Add FBS and appropriate additives according to the information sheet provided by the vendor. Mix gently. • b. Prepare single cell suspension and count the cell numbers and adjust cells to appropriate density. • c. Add 80 μL of cell suspension to 96-well opaque-walled clear bottom plates according to the planned plate layout and place the plates in the CO2 incubator overnight. • d. Prepare intermediate plate: 10 μl of diluted test compounds or staurosporine solution (200×) is added to a 96 deep well plate. Then 390 μl of culture medium without FBS is added to the respective wells. • e. Transfer 20 μL of the solutions from the above intermediate plate to the wells of the plate prepared containing 80 μL of the culture medium and cells. The total dilution is 200 folds. • f. The cells were then incubated at 5% CO2, 37° C. for 72 hours. • g. Equilibrate the plate and its contents to room temperature for approximately 30 minutes. • h. Add 100 μL of CellTiter-Glo reagent to the assay plate • i. Mix contents for 10 minutes on an orbital shaker to induce cell lysis. • j. Allow the plate to incubate at room temperature for 10 minutes to stabilize luminescent signal, • k. Paste the clear bottom with white back seal and record luminescence with Varioskan LUX plate reader.
Inhibition % and IC50 value were calculated by the formula described below: […]
A general note: In ATP-based viability assays light output follows the ATP content of the culture.

In test [2] the test system is PI3Kα wide type cell line SK-BR-3. Description: Cell Proliferation IC50 Assay (CellTiter-Glo), SK-BR-3. The note with it: Homo sapiens; SK-BR-3 (PI3Kα wild type), 72 hours, CellTiter-Glo; read-out: IC50 (μM) SK-BR-3. The method in brief:
(§1)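 Read-out was CellTiter-Glo luminescence after 72 h of compound exposure at 37 °C, 5% CO2. Cells had been plated overnight in complete medium before the compound was added at a 200-fold final dilution. IC50 was derived from percent inhibition.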

Test [3] deals with PI3Kα H1047R mutation cell line T-47D. Description: Cell Proliferation IC50 Assay (CellTiter-Glo), T-47D. The note with it: Homo sapiens, T47D (H1047R), 72 hours, CellTiter-Glo, read-out: IC50 (μM) T47D. The method in brief: as §1
The mark [4] stands for this setting: MDA-MB-453 (H1047R), 72 hours, CellTiter-Glo.

Read-outs that look alike come from different tables or passages of the source. Where only a bound is given, the exact number is not on record here.

What is called IC50 is the concentration that inhibits the measured activity by half. With `Cc1cc(C(C)Nc2ccccc2C(=O)O)c2oc(-c3ccc4nn(C)cc4c3C)cc(=O)c2c1` (stereo not drawn) [Example 62, 2-((1-(2-(2,4-dimethyl-2H-indazol-5-yl)-6-methyl-4-oxo-4H-chromen-8-yl)ethyl)amino)benzoic acid], the IC50 in test [1] (setting [4]) is 0.47 µM; in test [2] it was greater than 10 µM.
As for `Cc1cc(C(C)Nc2ccccc2C(=O)O)c2oc(C3CCN(c4cccnc4)CC3)c(C)c(=O)c2c1` (stereo not drawn) [Example 125, 2-((1-(3,6-dimethyl-4-oxo-2-(1-(pyridin-3-yl)piperidin-4-yl)-4H-chromen-8-yl)ethyl)amino)benzoic acid], the results for the IC50 in test [1] (setting [4]) and in test [2] were 0.4 µM and greater than 10 µM, respectively.
Consider `Cc1cc(C(C)Nc2ccccc2C(=O)O)c2oc(-c3ccc(=O)n(C)c3)cc(=O)c2c1` (stereo not drawn) [Example 50, 2-((1-(6-methyl-2-(1-methyl-6-oxo-1,6-dihydropyridin-3-yl)-4-oxo-4H-chromen-8-yl)ethyl)amino)benzoic acid], for which the figures for the IC50 in test [1] (setting [4]) and in test [2] were 6.39 µM and greater than 10 µM, respectively.
Turning to `Cc1cc(C(C)Nc2ccccc2C(=O)O)c2oc(-c3ccc4c(c3)N(C)C(=O)C4)cc(=O)c2c1` (stereo not drawn) [Example 21, 2-((1-(6-methyl-2-(1-methyl-2-oxoindolin-6-yl)-4-oxo-4H-chromen-8-yl)ethyl)amino)benzoic acid], the IC50 in test [1] (setting [4]) and in test [2] was greater than 10 µM each time.
In the case of `Cc1cc(C(C)Nc2ccccc2C(=O)O)c2oc(-c3ccc(N4CCOCC4=O)cc3)cc(=O)c2c1` (stereo not drawn) [Example 64, 2-((1-(6-methyl-4-oxo-2-(4-(3-oxomorpholino)phenyl)-4H-chromen-8-yl)ethyl)amino)benzoic acid], the IC50 in test [1] (setting [4]) is 1.9 µM; in test [2], greater than 10 µM.
Take `Cc1cc(C(C)Nc2ccccc2C(=O)O)c2oc(-c3ccc4cnn(C)c4c3)cc(=O)c2c1` (stereo not drawn) [Example 52, 2-((1-(6-methyl-2-(1-methyl-1H-indazol-6-yl)-4-oxo-4H-chromen-8-yl)ethyl)amino)benzoic acid]: the IC50 in test [1] (setting [4]) is 0.78 µM; in test [2] it was greater than 10 µM.
Consider `Cc1cc(C(C)Nc2ccccc2C(=O)O)c2oc(-c3ccc4nn(CCO)cc4c3)cc(=O)c2c1` (stereo not drawn) [Example 57, 2-((1-(2-(2-(2-hydroxyethyl)-2H-indazol-5-yl)-6-methyl-4-oxo-4H-chromen-8-yl)ethyl)amino)benzoic acid], for which the results for the IC50 in test [1] (setting [4]) and in test [2] were 0.62 µM and greater than 10 µM, respectively.
The corresponding values for `Cc1cc(C(C)Nc2ccccc2C(=O)O)c2oc(-c3cccc4c3CN(C)C4=O)cc(=O)c2c1` (stereo not drawn) [Example 24, 2-((1-(6-methyl-2-(2-methyl-1-oxoisoindolin-4-yl)-4-oxo-4H-chromen-8-yl)ethyl)amino)benzoic acid] are 4.07 µM and greater than 10 µM.
As for `Cc1cc([C@@H](C)Nc2ccccc2C(=O)O)c2oc(-c3ccc(N4CCN(C5COC5)CC4)cc3)c(C)c(=O)c2c1` [Example 118, (R)-2-((1-(3,6-dimethyl-2-(4-(4-(oxetan-3-yl)piperazin-1-yl)phenyl)-4-oxo-4H-chromen-8-yl)ethyl)amino)benzoic acid], the IC50 in test [1] (MDA-MB-453, 72 h) was 0.14 µM; in test [2] it was 7.52 µM.
Consider `Cc1cc(C(C)Nc2ccccc2C(=O)O)c2oc(-c3ccc4nn(C)c(C)c4c3)cc(=O)c2c1` (stereo not drawn) [Example 111, 2-((1-(2-(2,3-dimethyl-2H-indazol-5-yl)-6-methyl-4-oxo-4H-chromen-8-yl)ethyl)amino)benzoic acid], for which the IC50 in test [1] (setting [4]) was 0.87 µM; in test [2], greater than 10 µM.
The corresponding values for `Cc1cc(C(C)Nc2ccccc2C(=O)O)c2oc(-c3ccc(CN4CCOCC4)cc3)c(C)c(=O)c2c1` (stereo not drawn) [Example 128, 2-((1-(3,6-dimethyl-2-(4-(morpholinomethyl)phenyl)-4-oxo-4H-chromen-8-yl)ethyl)amino)benzoic acid] are 0.16 µM and greater than 10 µM.
Turning to `Cc1cc(C(C)Nc2ccccc2C(=O)O)c2oc(C3CCN(c4ccncc4)CC3)c(C)c(=O)c2c1` (stereo not drawn) [Example 126, 2-((1-(3,6-dimethyl-4-oxo-2-(1-(pyridin-4-yl)piperidin-4-yl)-4H-chromen-8-yl)ethyl)amino)benzoic acid], the values for the IC50 in test [1] (setting [4]) and in test [2] were 2.46 µM and greater than 10 µM, respectively.
Regarding `Cc1cc(C(C)Nc2ccccc2C(=O)O)c2oc(-c3ccc4c(c3)CN(Cc3ccccc3)C4=O)cc(=O)c2c1` (stereo not drawn) [Example 46, 2-((1-(2-(2-benzyl-1-oxoisoindolin-5-yl)-6-methyl-4-oxo-4H-chromen-8-yl)ethyl)amino)benzoic acid], the IC50 is 0.42 µM in test [1] (setting [4]) and greater than 10 µM in test [2].
In the case of `Cc1cc(C(C)Nc2ccccc2C(=O)O)c2oc(-c3ccc(N4CCN(C)CC4)cc3)c(C)c(=O)c2c1` (stereo not drawn) [Example 90, 2-((1-(3,6-dimethyl-2-(4-(4-methylpiperazin-1-yl)phenyl)-4-oxo-4H-chromen-8-yl)ethyl)amino)benzoic acid], the IC50 in test [1] (setting [4]) is 0.09 µM; in test [2], greater than 10 µM.
`Cc1cc(C(C)Nc2ccccc2C(=O)O)c2oc(-c3ccc(C(=O)N(C)C)c(C)c3)cc(=O)c2c1` (stereo not drawn) [Example 48, 2-((1-(2-(4-(dimethylcarbamoyl)-3-methylphenyl)-6-methyl-4-oxo-4H-chromen-8-yl)ethyl)amino)benzoic acid]: the figures for the IC50 in test [1] (setting [4]) and in test [2] were 0.76 µM and greater than 10 µM, respectively.
The corresponding values for `Cc1cc(C(C)Nc2ccccc2C(=O)O)c2oc(-c3ccc(C(=O)N4CCOCC4)cc3)c(C)c(=O)c2c1` (stereo not drawn) [Example 129, 2-((1-(3,6-dimethyl-2-(4-(morpholine-4-carbonyl)phenyl)-4-oxo-4H-chromen-8-yl)ethyl)amino)benzoic acid] are 0.26 µM and greater than 10 µM.
Regarding `COC(=O)c1ccccc1N[C@H](C)c1cc(C)cc2c(=O)c(C)c(-c3ccc(-c4cnn(C)c4)nc3)oc12` [Example 190, methyl (R)-2-((1-(3,6-dimethyl-2-(6-(1-methyl-1H-pyrazol-4-yl)pyridin-3-yl)-4-oxo-4H-chromen-8-yl)ethyl)amino)benzoate], the IC50 in test [3] (T47D, 72 h) turned out to be 0.27 µM; in test [2], 6.05 µM.
On to `CC(=O)N1CCN(C(=O)c2ccc(-c3oc4c([C@@H](C)Nc5ccccc5C(=O)O)cc(C)cc4c(=O)c3C)cc2)CC1` [Example 139, (R)-2-((1-(2-(4-(4-acetylpiperazine-1-carbonyl)phenyl)-3,6-dimethyl-4-oxo-4H-chromen-8-yl)ethyl)amino)benzoic acid], for which the IC50 in test [3] (T47D, 72 h) was 1.04 µM; in test [2], greater than 10 µM.
In the case of `Cc1cc(C(C)Nc2ccccc2C(=O)NO)c2oc(-c3ccc4nn(C)cc4c3)c(C)c(=O)c2c1` (stereo not drawn) [Example 156, 2-((1-(3,6-dimethyl-2-(2-methyl-2H-indazol-5-yl)-4-oxo-41H-chromen-8-yl)ethyl)amino)-N-hydroxybenzamide], the IC50 in test [3] (T47D, 72 h) is 0.13 µM; in test [2], greater than 10 µM.
As for `Cc1cc(C(C)Nc2ccccc2C(=O)O)c2oc(C3=CCN(C(C)C(F)(F)F)CC3)cc(=O)c2c1` (stereo not drawn) [Example 17, 2-((1-(6-methyl-4-oxo-2-(1-(1,1,1-trifluoropropan-2-yl)-1,2,3,6-tetrahydropyridin-4-yl)-4H-chromen-8-yl)ethyl)amino)benzoic acid], the IC50 was 2.07 µM in test [3] (T47D, 72 h) and greater than 10 µM in test [2].
`Cc1cc([C@@H](C)Nc2ccccc2C(=O)O)c2oc(-c3ccc(-c4cn(C)cn4)nc3)c(C)c(=O)c2c1` [Example 163]: the half-inhibitory concentration (IC50) is 0.12 µM in test [3] and greater than 10 µM in test [2].
Regarding `Cc1cc([C@@H](C)Nc2ccccc2C(=O)O)c2oc(-c3ccc(OCCN4CCOCC4)cc3)c(C)c(=O)c2c1` [Example 141, (R)-2-((1-(3,6-dimethyl-2-(4-(2-morpholinoethoxy)phenyl)-4-oxo-4H-chromen-8-yl)ethyl)amino)benzoic acid], the IC50 was 0.044 µM in test [3] (T47D, 72 h) and greater than 10 µM in test [2].
Take `Cc1cc(C(C)Nc2ccccc2C(=O)O)c2oc(-c3ccccn3)cc(=O)c2c1` (stereo not drawn) [Example 31, 2-((1-(6-methyl-4-oxo-2-(pyridin-2-yl)-4H-chromen-8-yl)ethyl)amino)benzoic acid]: the 50% inhibitory concentration (IC50) is 0.9 µM in test [3] (T47D, 72 h) and greater than 10 µM in test [2].
For the molecule `Cc1cc(C(C)Nc2ccccc2C(=O)O)c2oc(C3CCN(C(C)C(F)(F)F)CC3)cc(=O)c2c1` (stereo not drawn) [Example 16, 2-((1-(6-methyl-4-oxo-2-(1-(1,1,1-trifluoropropan-2-yl)piperidin-4-yl)-4H-chromen-8-yl)ethyl)amino)benzoic acid], the IC50 in test [3] (T47D, 72 h) was 2.56 µM; in test [2] it was greater than 10 µM.
